Tests used:
[1] = test system: cells bearing wildtype TEM-1; assay: MIC assay on Mueller Hinton agar, cells bearing TEM-1 without mutation (allele 'none'); type: cell-based, E. coli
Method: (§1) Selected single base mutations were re-introduced into TEM-1 by site-directed PFunkel mutagenesis on the 20 μL volume scale. The MIC for ampicillin and piperacillin of the mutants was assessed with and without 6 μg/mL tazobactam by spotting 10^4 CFU on Mueller-Hinton agar plates containing 50 μg/mL Spec, 300 μM IPTG, and √2-fold increments of either ampicillin or piperacillin. Plates were incubated at 37° C. for 12 hrs.

[2] = test system: cells bearing TEM-1 allele Y105N; assay: MIC assay on Mueller Hinton agar, TEM-1 allele Y105N; type: cell-based, E. coli; details: replicates 1-3
Method: as §1

[3] = +tazobactam 6 μg/mL, replicates 1-3
[4] = −tazobactam, replicates 1-3, 10^4 CFU/spot, 37° C. for 12 hours

Row | Compound | Piperacillin MIC [1, 3] [µg/mL] | Piperacillin MIC [1, 4] [µg/mL] | MIC ampicillin ([2]; +tazobactam 6 μg/mL) [µg/mL] | MIC ampicillin ([2]; −tazobactam) [µg/mL] | MIC ampicillin [1, 3] [µg/mL] | MIC ampicillin [1, 4] [µg/mL]
1 | CCN1CCN(C(=O)N[C@@H](C(=O)N[C@@H]2C(=O)N3[C@@H]2SC(C)(C)[C@@H]3C(=O)O)c2ccccc2)C(=O)C1=O [Piperacillin, piperacillin] | 1.4 | 2896 | – | – | – | –
2 | CC1(C)S[C@@H]2[C@H](NC(=O)[C@H](N)c3ccccc3)C(=O)N2[C@H]1C(=O)O [Ampicillin, ampicillin] | – | – | 1448 | 5792 | 22.6 | 8192

— patent publication US9777266B2, “Methods for efficient, expansive, user-defined DNA mutagenesis” (THE JOHNS HOPKINS UNIVERSITY, priority 2012, dated 2017)
